How the values were obtained:
hEP4 = target: T1, hEP4 (Homo sapiens, UniProt P35408); assay: Radioligand binding, [3H]PGE2, HEK-293 cells stably expressing EP4 receptors; details: Table 1, second part; read-out: hEP4 Ki
T1 construct: expressed in transfected cells; host or cells: HEK-293 cells (plasma membrane fraction)
Description: (§1) HEK-293 cells stably expressing the human or feline FP receptor, or EP1, EP2, or EP4 receptors were washed with TME buffer, scraped from the bottom of the flasks, and homogenized for 30 sec using a Brinkman PT 10/35 polytron. TME buffer was added to achieve a final 40 ml volume in the centrifuge tubes (the composition of TME is 100 mM TRIS base, 20 mM MgCl2, […]; 10N HCl is added to achieve a pH of 7.4).
(§2) The cell homogenate was centrifuged at 19000 r.p.m. for 20 min at 4° C. using a Beckman Ti-60 rotor. The resultant pellet was resuspended in TME buffer to give a final 1 mg/ml protein concentration, as determined by Biorad assay. Radioligand binding competition assays vs. [^3H—]17 phenyl PGF2. (5 nM) were performed in a 100 μl volume for 60 min. Binding reactions were started by adding plasma membrane fraction. The reaction was terminated by the addition of 4 ml ice-cold TRIS-HCl buffer and rapid filtration through glass fiber GF/B filters using a Brandel cell harvester. The filters were washed 3 times with ice-cold buffer and oven dried for one hour.
[^3H—] PGE2 (specific activity 180 Ci mmol) was used as the radioligand for EP receptors. [^3H] 17-phenyl PGF2α was employed for FP receptor binding studies. […] A 200 μl assay volume was used. Incubations were for 60 min at 25° C. and were terminated by the addition of 4 ml of ice-cold 50 mM TRIS-HCl, followed by rapid filtration through Whatman GF/B filters and three additional 4 ml washes in a cell harvester (Brandel). Competition studies were performed using a final concentration of 5 nM [^3H]-PGE2, or 5 nM [^3H] 17-phenyl PGF2α and non-specific binding determined with 10^−5M of unlabeled PGE2, or 17-phenyl PGF2α, according to receptor subtype studied.

hEP2/Gqs5 = target: T2, hEP2/Gqs5 (Homo sapiens, UniProt P43116); assay: FLIPR calcium signal, HEK-293(EBNA) cells; type: cell-based; details: Table 1, second part; read-out: hEP2 flipr EC50
T2 construct: expressed in transfected cells; host or cells: HEK-293(EBNA) cells
T2 sequence (P43116 whole entry): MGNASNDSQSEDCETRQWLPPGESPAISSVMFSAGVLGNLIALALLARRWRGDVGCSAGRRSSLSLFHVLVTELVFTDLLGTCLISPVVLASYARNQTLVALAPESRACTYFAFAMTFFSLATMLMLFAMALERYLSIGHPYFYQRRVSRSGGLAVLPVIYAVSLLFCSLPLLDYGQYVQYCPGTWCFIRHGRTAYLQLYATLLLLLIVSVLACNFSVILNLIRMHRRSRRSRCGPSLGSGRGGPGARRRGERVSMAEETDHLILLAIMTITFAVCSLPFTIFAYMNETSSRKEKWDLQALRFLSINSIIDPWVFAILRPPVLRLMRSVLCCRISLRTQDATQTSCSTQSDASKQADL
Description: (§3) HEK-293(EBNA) cells, stably expressing one type or subtype of recombinant human prostaglandin receptors (prostaglandin receptors expressed: hDP/Gqs5; hEP1; hEP2/Gqs5; hEP3A/Gqi5; hEP4/Gqs5; hFP; hIP; hTP), were cultured in 100 mm culture dishes in high-glucose DMEM medium containing 10% fetal bovine serum, 2 mM 1-glutamine, 250 μg/ml geneticin (G418) and 200 μg/ml hygromycin B as selection markers, and 100 units/ml penicillin G, 100 μg/ml streptomycin and 0.25 μg/ml amphotericin B.
(§4) Cells were seeded at a density of 5×10^4 cells per well in Biocoat® Poly-D-lysine-coated black-wall, clear-bottom 96-well plates (Becton-Dickinson) and allowed to attach overnight in an incubator at 37° C. Cells were then washed two times with HBSS-HEPES buffer (Hanks Balanced Salt Solution without bicarbonate and phenol red, 20 mM HEPES, pH 7.4) using a Denley Cellwash plate washer (Labsystems). After 45 minutes of dye-loading in the dark, using the calcium-sensitive dye Fluo-4 AM at a final concentration of 2 μM, plates were washed four times with HBSS-HEPES buffer to remove excess dye leaving 100 μl in each well. Plates were re-equilibrated to 37° C. for a few minutes.
(§5) Cells were excited with an Argon laser at 488 nm, and emission was measured through a 510-570 nm bandwidth emission filter (FLIPR™, Molecular Devices, Sunnyvale, Calif.). Drug solution was added in a 50 μl volume to each well to give the desired final concentration. The peak increase in fluorescence intensity was recorded for each well. On each plate, four wells each served as negative (HBSS-HEPES buffer) and positive controls (standard agonists: BW245C (hDP); PGE2 (hEP1; hEP2/Gqs5; hEP3A/Gqi5; hEP4/Gqs5); PGF2. (hFP); carbacyclin (hIP); U-46619 (hTP), depending on receptor). The peak fluorescence change in each drug-containing well was then expressed relative to the controls.
(§6) Compounds were tested in a high-throughput (HTS) or concentration-response (CoRe) format. In the HTS format, forty-four compounds per plate were examined in duplicates at a concentration of 10^−5 M. To generate concentration-response curves, four compounds per plate were tested in duplicates in a concentration range between 10^−5 and 10^−11 M. The duplicate values were averaged. In either, HTS or CoRe format each compound was tested on at least 3 separate plates using cells from different passages to give an n≧3.

hEP4/Gqs5 = target: T3, hEP4/Gqs5 (Homo sapiens, UniProt P35408); assay: FLIPR calcium signal, HEK-293(EBNA) cells; type: cell-based; details: Table 1, second part; read-out: hEP4 flipr EC50
T3 construct: expressed in transfected cells; host or cells: HEK-293(EBNA) cells
T3 sequence (P35408 whole entry): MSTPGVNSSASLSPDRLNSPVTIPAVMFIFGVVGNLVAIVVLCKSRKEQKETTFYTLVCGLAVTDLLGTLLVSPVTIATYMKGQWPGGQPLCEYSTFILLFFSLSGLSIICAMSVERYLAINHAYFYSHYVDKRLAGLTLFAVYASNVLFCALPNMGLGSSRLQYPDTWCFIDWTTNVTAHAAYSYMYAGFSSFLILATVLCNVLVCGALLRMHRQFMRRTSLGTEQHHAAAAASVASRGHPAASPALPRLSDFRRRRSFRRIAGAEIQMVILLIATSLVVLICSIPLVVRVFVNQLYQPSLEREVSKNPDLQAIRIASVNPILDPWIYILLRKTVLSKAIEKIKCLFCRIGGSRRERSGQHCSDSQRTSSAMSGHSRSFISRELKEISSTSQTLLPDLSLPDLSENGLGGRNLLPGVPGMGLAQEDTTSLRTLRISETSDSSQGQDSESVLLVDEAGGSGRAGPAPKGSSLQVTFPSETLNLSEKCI
Description: as §3, §4, §5, §6

hIP = target: T4, hIP (Homo sapiens, UniProt P43119); assay: FLIPR calcium signal, HEK-293(EBNA) cells; type: cell-based; details: Table 1, second part; quantity not given, values match functional data (EC50) of first part; read-out: Other Receptors hIP
T4 construct: expressed in transfected cells; host or cells: HEK-293(EBNA) cells
T4 sequence (P43119 whole entry): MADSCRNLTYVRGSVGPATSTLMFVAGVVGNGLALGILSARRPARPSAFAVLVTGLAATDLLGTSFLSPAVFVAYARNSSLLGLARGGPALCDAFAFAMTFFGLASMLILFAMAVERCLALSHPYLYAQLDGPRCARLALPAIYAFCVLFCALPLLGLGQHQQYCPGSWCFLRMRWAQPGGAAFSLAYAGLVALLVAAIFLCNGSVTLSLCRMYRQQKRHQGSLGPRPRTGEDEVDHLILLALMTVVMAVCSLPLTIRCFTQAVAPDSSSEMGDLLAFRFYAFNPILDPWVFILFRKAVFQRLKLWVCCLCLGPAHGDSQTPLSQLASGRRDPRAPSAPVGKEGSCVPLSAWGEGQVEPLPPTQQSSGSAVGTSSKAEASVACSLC
Description: as §3, §4, §5, §6

hEP2 [1] = target: T5, hEP2 (Homo sapiens, UniProt P43116); assay: hEP2 cAMP functional assay; type: cell-based; details: Table 1, second part
T5 sequence (P43116 whole entry): as the sequence (P43116 whole entry) above

hEP2 [2] = target: T5, hEP2; assay: Competition binding, [3H]PGE2, HEK 293 cells stably expressing human EP2 receptors; design: expressed in transfected cells; host or cells: HEK 293 cells (membranes or whole cells); details: Table 1, second part; read-out: hEP2 Ki
Description: Competition binding experiments were performed in a medium containing Hank's balanced salt solution, Hepes 20 mM, pH 7.3, membranes (˜60 μg protein) or 2×10^5 cells from HEK 293 cells stably expressing human EP2 receptors, [^3H]PGE2 (10 nM) and various concentrations of test compounds in a total volume of 300 μL. Reaction mixtures were incubated at 23° C. for 60 min, and were filtered over Whatman GF/B filters under vacuum. Filters were washed three times with 5 ml ice-cold buffer containing 50 mM Tris/HCl (pH 7.3). Non-specific binding was estimated in the presence of excess unlabeled PGE2 (10 μM). Binding data fitted to the binding model for a single class of binding sites, using nonlinear regression analysis. IC50 values thus obtained were converted to Ki using the equation of Ki=(IC50/(1+[L]/KD) where [L] represents PGE2 concentration (10 nM) and KD the dissociation constant for [^3H]PGE2 at human EP2 receptors (40 nM).
as §1, §2
[^3H—] PGE2 (specific activity 180 Ci mmol) was used as the radioligand for EP receptors. [^3H] 17-phenyl PGF2α was employed for FP receptor binding studies. Binding studies employing EP1, EP2, EP4 and FP receptors were performed in duplicate in at least three separate experiments. A 200 μl assay volume was used. Incubations were for 60 min at 25° C. and were terminated by the addition of 4 ml of ice-cold 50 mM TRIS-HCl, followed by rapid filtration through Whatman GF/B filters and three additional 4 ml washes in a cell harvester (Brandel). Competition studies were performed using a final concentration of 5 nM [^3H]-PGE2, or 5 nM [^3H] 17-phenyl PGF2α and non-specific binding determined with 10^−5M of unlabeled PGE2, or 17-phenyl PGF2α, according to receptor subtype studied.

T1 sequence (P35408 whole entry): as the sequence (P35408 whole entry) above

Ki (hEP4): 14700 nM
EC50 (hEP2/Gqs5): 192 nM
EC50 (hEP4/Gqs5): > 10000 nM
EC50 (hIP): 2690 nM
EC50 (hEP2 [1]): 41 nM
Ki (hEP2 [2]): 291 nM
SMILES: O=Cc1cccc(OC[C@@H]2[C@@H](C/C=C\CCCC(=O)O)[C@H](Cl)C[C@H]2O)c1 [Example 48, (Z)-7-[(1R,2S,3R,5R)-5-Chloro-2-(3-formyl-phenoxymethyl)-3-hydroxy-cyclopentyl]-hept-5-enoic acid]

— patent US7635716B2, “Substituted cyclopentanes or cyclopentanones as therapeutic agents” (Allergan, Inc., priority 2005, dated 2009)
